“And” between values parts separate entries of the source, which are not always exact repeats. Equal values may be shown once.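 Five compound concentrations were applied to cells in 96-well plates for 48 hours; endpoints were derived by simple linear interpolation of the resulting dose-response curve. GI50 marks 50% less growth. TGI: concentration producing complete growth inhibition.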
Assays:
Experiment in all cases: NCI tumour cell line growth inhibition, 48 h
SK-MEL-28 melanoma = tested on: SK-MEL-28 melanoma
SK-MEL-2 melanoma = tested on: SK-MEL-2 melanoma
SK-OV-3 ovarian = tested on: SK-OV-3 ovarian
OVCAR-4 ovarian = tested on: OVCAR-4 ovarian
LOX IMVI melanoma = tested on: LOX IMVI melanoma
SNB-75 CNS = tested on: SNB-75 CNS
T-47D breast = tested on: T-47D breast

SMILES | TGI (SK-MEL-28 melanoma) [µM] | TGI (SK-MEL-2 melanoma) [µM] | TGI (SK-OV-3 ovarian) [µM] | TGI (OVCAR-4 ovarian) | TGI (LOX IMVI melanoma) [µM] | TGI (SNB-75 CNS) [µM] | TGI (T-47D breast) [µM] | GI50 (SK-MEL-28 melanoma) [µM] | GI50 (SK-MEL-2 melanoma) [µM] | GI50 (SK-OV-3 ovarian) [µM] | GI50 (OVCAR-4 ovarian) [µM] | GI50 (LOX IMVI melanoma) [µM] | GI50 (SNB-75 CNS) [µM] | GI50 (T-47D breast) [µM]
O=C(O)C1C(C(=O)Nc2ccc3c(c2)Cc2ccccc2-3)C2(Cl)C(Cl)=C(Cl)C1(Cl)C2(Cl)Cl (centres undefined) | 46.3 | 36.2 | > 100 | > 100 µM | 32.3 | 91.8 | > 100 |  |  |  |  |  |  | 
COc1ccc(C(=O)c2ccc(OC)c(OC)c2OC)cc1 | > 100 | 3.33 | 13.1 | > 100 µM | > 100 | > 100 | > 100 | 4.51 | 0.402 | 2.06 | 7.08 | 6.63 | 1.76 | 5.37
C/C(=N\NC(=O)c1ccncc1)c1ccc2ccccc2c1O | > 100 | > 100 | > 60.7 | > 65.2 µM | > 100 | > 43.8 | 14.5 |  |  |  |  |  |  | 
CN1CCCNc2c(c(=O)c2=O)NCCCN(C)CCCNc2c(c(=O)c2=O)NCCCN(C)CCCNc2c(c(=O)c2=O)NCCCN(C)CCCNc2c(c(=O)c2=O)NCCCN(C)CCCNc2c(c(=O)c2=O)NCCCN(C)CCCNc2c(c(=O)c2=O)NCCCN(C)CCCNc2c(c(=O)c2=O)NCCC1 | 16.2 | 31.6 | 8.29 | 16.7 µM | > 50 | 19.3 | 7.74 | 3.7 | 3.12 | 2.46 | 2.98 | 10.5 | 9.48 | 2.06
CCCCCC(O)C1C(=O)OC(C)C(O)/C=C/C=C/C=C/C=C\C=C(\C)C(O)CC(O)CC(O)CC(O)CC(O)CC(O)CC1O (centres undefined) | > 100 | > 100 | > 100 | 26.3 µM and > 100 µM | > 100 | > 100 | > 100 | > 100 | > 100 | > 100 | > 100 | > 100 | > 100 | > 100
C=C1C[C@](OC)([C@H](O)C(=O)N[C@@H](OC)[C@@H]2C[C@@H](O)C(C)(C)[C@@H](C[C@@H](COC)OC)O2)O[C@H](C)[C@@H]1C | 0.00383 | 0.025 | 0.0078 | 0.0198 µM | 0.00295 | 0.00825 | 0.00548 | 0.00129 | 0.0023 | 0.00194 | 0.00227 | 0.00121 | 0.00273 | 0.000814
CC(C)(C)[Si](C)(C)OCC1OC(n2cnc3c(NC(=O)c4ccccc4)ncnc32)CC1O (centres undefined) | 87.4 | 57.9 | 89.1 | 84.6 µM | 33.9 | 60.3 | 99.5 |  |  |  |  |  |  | 
CN(C)c1ccc(C(=C2C=CC(=[N+](C)C)C=C2)c2ccc(N(C)C)cc2)cc1 (tested in a mixture with another compound) | 1.37 | 0.545 | 0.933 | 1.32 µM |  | 0.54 | 0.655 | 0.141 |  |  | 0.183 |  | 0.0724 | 0.0389
CC(=O)Nc1ccc(Sc2ccc([N+](=O)[O-])o2)cc1 | 3.6 | 6.29 | 20.6 | 5.1 µM | 3.05 | 12.8 |  | 1.75 | 2.31 | 8.37 | 2.27 | 1.45 | 2.78 | 
CSc1cnn(CCC#N)c(=O)n1 | > 100 |  | > 100 |  | > 100 | > 100 | > 100 |  |  |  |  |  |  | 
NS(=O)(=O)c1cc2c(cc1Cl)NC(Cc1ccccc1)NS2(=O)=O (centres undefined) | > 100 | > 100 | > 100 | > 100 µM | > 100 | > 100 | > 100 |  |  |  |  |  |  | 
O=C1C(Br)=CC2(C=C1Br)CCN=c1c2c(O)c2nc3ccccc3c3ccnc1c23 | 2.49 |  | 11 | 2.22 µM | 4.35 |  | 3.76 | 0.803 |  | 5.03 | 0.788 | 1.24 |  | 1.13
O=C1OCC(c2cccs2)=C1Cl | > 100 | > 100 | > 100 | > 100 µM | > 100 | > 100 | > 100 | 76.8 | > 100 | > 100 | 73.8 | 89.5 | 75.9 | 7.47
O=P(O)(O)c1ccccc1 (tested in a mixture with another compound) | > 100 | > 100 | > 100 | > 100 µM | > 100 | > 100 | > 100 |  |  |  |  |  |  | 
CCOc1ccc([C@@H]2[C@@H](Oc3ccccc3)C(=O)N2c2cc(OC)c(OC)c(OC)c2)cc1 | > 100 | > 100 | > 100 | > 100 µM | > 100 | > 100 | > 100 | 1.89 | 0.097 | 0.227 | 0.928 | 0.0642 | 0.037 | 9.48
Cc1ccc(C2NC(=S)NC3=C2CCOc2c3ccc3ccccc23)cc1 (centres undefined) | > 100 | > 100 | > 100 | > 100 µM |  | > 100 | > 100 | 57.4 | > 100 | > 100 | 29.4 |  | > 100 | 35.7
CC(=O)N1CC(Nc2ccc(OC(F)(F)F)cc2)=CC1=O | > 100 | 95.9 | > 100 | > 100 µM | > 100 | 7.59 |  | 7.29 | 0.52 | 3.53 | 4.84 | 2.32 | 1.59 | 
COc1ccc(-c2ccc(/C=N/n3c(COc4ccccc4Cl)nn(CN4CCN(C)CC4)c3=S)o2)c([N+](=O)[O-])c1 | 69.4 | 83.3 | 83.8 |  |  | 77.3 | 77.1 | 24.5 | 31.6 | 30.6 |  |  | 20.3 | 22.1
CC(C)[C@@]12C[C@@H](OC(=O)[C@H]3CO3)[C@@](C)(O1)[C@@H]1CC[C@@H](C)[C@H]1[C@@H]2OC(=O)/C=C/c1ccccc1 | 57.2 | 47.7 | 45.8 | 30.2 µM | 46.3 | 29.7 | > 49.9 | 18.7 | 16.7 | 18.2 | 11.5 | 12.6 | 2.72 | 8.11

SMILES | TGI (SK-MEL-28 melanoma) [µM] | TGI (SK-MEL-2 melanoma) [µM] | TGI (SK-OV-3 ovarian) [µM] | TGI (OVCAR-4 ovarian) | TGI (LOX IMVI melanoma) [µM] | TGI (SNB-75 CNS) [µM] | TGI (T-47D breast) [µM] | GI50 (SK-MEL-28 melanoma) [µM] | GI50 (SK-MEL-2 melanoma) [µM] | GI50 (SK-OV-3 ovarian) [µM] | GI50 (OVCAR-4 ovarian) [µM] | GI50 (LOX IMVI melanoma) [µM] | GI50 (SNB-75 CNS) [µM] | GI50 (T-47D breast) [µM]
COc1cccc(C2C(C#N)=C(N)Oc3cc(N)ccc32)c1 (centres undefined) | > 100 | > 100 | 3.5 | > 100 µM | > 100 | > 100 |  | 0.663 | 0.397 | 0.4 | 5.14 | 0.506 | 0.293 | 
COc1ccc(Nn2c(SCC(=O)Nc3nc(-c4ccc(Cl)cc4)cs3)nc(C)c2C)cc1 | > 100 | 66.8 | > 100 | > 100 µM | 44.2 | > 100 | 8.04 | 18 | 15.7 | 4.24 | 4.02 | 3.02 | 4.8 | 1.23
CCCCCCCC/C=C/CCCCCCCC1=NCC[N+]1(CCO)CCO | 21.6 | 6.01 | 24.4 | 14.9 µM |  | 9.52 | 22.7 | 9.71 | 2.69 | 10.1 | 3.87 |  | 2.39 | 7.08
COc1cc(NCCCCN=C(N)NC(N)=NC(C)C)c2ncccc2c1 | 24.7 | 14.9 | > 100 | 2.15 µM | 15.5 | 17.3 | 8.2 | 12.1 | 3.8 | 34.4 | 0.0797 | 3.68 | 4.21 | 0.739
CC(=O)c1c(C(F)(F)F)n([O-])c2ccc(Cl)cc2[n+]1=O | 6.31 | 12.5 | 19.9 | 50.8 µM | 3.92 | 8.38 | > 40.4 | 1.97 | 3.18 | 6.65 | 19 | 0.652 | 1.69 | 2.31
O=[N+]([O-])c1ccc(-c2nc(-c3ccccc3)c(-c3ccccc3)n2-c2ccccc2)cc1 | 9.97 | 8.6 | 9.21 | 14.9 µM | 6.86 | 22 | 7.29 | 2.99 | 3.04 | 2.03 | 2.94 | 2.4 | 2.64 | 2.19
C1CCN(CCC2CCCCN2)CC1 (centres undefined) | > 100 | > 100 | > 100 | > 100 µM | > 100 | > 100 | > 100 |  |  |  |  |  |  | 
N#Cc1c(-c2ccc(Cl)cc2)n(O)c2ccccc12 | 26.4 | 5.46 | 5.16 | > 100 µM | 13.4 | 4.44 | 11.1 | 1.42 | 1.46 | 2.17 | 3.01 | 2.24 | 1.21 | 2.88
COc1ccc(NC(=O)n2nc(N)c3ccccc32)cc1OC | > 100 | > 100 | > 100 | > 100 µM | > 100 | > 100 | > 100 | > 100 | 37.2 | > 100 | 63.2 | 49.3 | 30.6 | 33
NC(=NCCCOc1ccc(Cl)cc1)Nc1ccc(Cl)cc1 | 3.64 | 4.72 | 12.3 | 7.9 µM | 2.98 | 11.8 |  | 1.89 | 2.32 | 3.31 | 2.3 | 1.6 | 0.725 | 
O=C(OCc1ccccc1)N1CCN(/[N+]([O-])=N/Oc2ccc([N+](=O)[O-])cc2[N+](=O)[O-])CC1 | 31.1 | 57 |  |  |  | 32.7 |  | 13.2 | 19.1 |  |  |  | 15.6 | 
CCOC(=O)c1sc2nc3sc(N=Nc4ccc(Cl)cc4)c(O)n3c(=S)c2c1C | > 100 | > 100 | > 100 | > 100 µM | 87.1 | > 100 | 21.9 | 28.4 | > 100 | 31 | 47.4 | 26.1 | 15.5 | 0.609
ClC1=C(Cl)C(Cl)=C(Cl)C1=C/C=C/c1ccccc1 | 0.597 | 0.678 | > 27.5 | 19.8 µM | 0.407 | 1.85 | 0.631 | 0.249 | 0.256 | 2.44 | 0.337 | 0.184 | 0.251 | 0.153
NC(CSC(c1ccccc1)(c1ccccc1)c1ccc(Cl)cc1)C(=O)O (centres undefined) | 44.3 | 5.07 | 21.7 | > 100 µM | 36.3 | 1.85 | 42 | 2.46 | 0.239 | 0.158 | 11.1 | 0.682 |  | 0.376
CCN(CC)CCCNc1cccc2c(SCc3ccccc3)ccnc12 | 3.5 | 3.56 | 4.51 | 8.29 µM |  | 3.22 | 4.29 | 1.99 | 1.89 | 2.02 | 2.62 |  | 1.6 | 1.93
OCCCN=NNc1ccc(-c2nc3ccccc3[nH]2)cc1 | 6.46 | 48.1 | 73 | > 100 µM |  | 38.6 | 6.65 | 2.47 | 14.5 | 24.2 | 3.78 |  | 6.07 | 2.15
COc1cc(C(=O)/C=C/c2cc(C(=O)c3cc(OC)c(OC)c(OC)c3)ccc2OC)ccc1N | 3.75 | 3.72 | 16.1 | > 100 µM | 2.03 | 4.35 |  | 1.36 | 1.63 | 3.16 | 0.982 | 0.74 | 1.16 | 
COc1cc(/C=C/c2cc(/C=C/c3ccc(O)c(OC)c3)n(-c3c(C)cccc3C)c(=O)n2)ccc1O | 5.1 | 1.73 | 3.37 | 8.41 µM |  |  | 4.25 | 1.16 | 0.436 | 0.438 | 0.798 |  |  | 1.34
